Laboratory results as given in patent US20200371122A1, “BIOMARKER FOR SENESCENT CELLS” (Buck Institute for Research on Aging, priority 2017, published 2020).

Tested on: IMR-90 fibroblasts
Test: Sensitisation to IR-induced senescence by senescence-equivalent dose of 15d-PGJ2
Assay type: cell-based, human
Settings: 1.4 μM
Text: Senescence was induced by irradiation with 10 Gy of ionizing radiation. Non-senescent controls (proliferating or quiescent) were placed in the irradiator for an identical period of time without turning on the irradiator. Oncogene-induced senescence was induced via lentiviral overexpression of HRAS^V12, as described previously (Wiley et al. (2016) Cell Metab. 23: 303-314).
SA-Bgal activity was detected as described previously (Dimri et al. (1995) Proc. Natl. Acad. Sci. USA, 92: 9363-9367) using a commercial kit (Biovision).
For EdU labeling, cells were cultured with EdU (10 μM) for 24 h, fixed in 4% buffered formalin for 10 min, washed in PBS, and permeabilized in 0.5% Triton X-100 for 30 min. Cells were treated as instructed by the manufacturer Life Technologies Cat #C10337). For immunofluorescence, cells were blocked in 10% normal goat serum for 30 min, washed, and incubated overnight in antibodies to Ki67 (Abcam) or cleaved caspase 3 (Cell Signaling). Cell were then washed, incubated in fluorescent secondary antibodies, and mounted using vectashield mounting medium with DAPI.

`CCCCC/C=C/C=C1/C(=O)C=C[C@@H]1C/C=C\CCCC(=O)O` [15d-PGJ2] was tested, and the “SA-beta-galactosidase, EdU incorporation and cell number versus DMSO” value (10 Gy IR, 10 days) was “no differences”, the “senescence versus control cells” value (lower doses of IR, 10 days) was “more senescent relative to control cells” and the induction of senescence (no IR) was “did not induce senescence on its own”.
